Experimental data published in patent US20250206732A1, “COMPOUNDS AND METHODS FOR THE TARGETED DEGRADATION OF KRAS” (Arvinas Operations, Inc., priority 2022, published 2025).

Key:
AsPC-1 HiBiT-KRASG12D = biological target: T1, AsPC-1 HiBiT-KRASG12D (Homo sapiens, UniProt P01116, G12D); assay: HiBiT degradation assay (G12D), AsPC-1 HiBiT-KRASG12D cells; format: cell-based; conditions: 24 hours treatment; for Dmax: ASPC1, AsPC-1 HiBiT-KRASG12D cells, maximum degradation observed; for DC50: AsPC-1 HiBiT-KRASG12D cells, HiBiT luminescence
T1 construct: insert the HiBiT tag onto the N-terminus of one or more of the endogenous KRAS alleles; endogenous in cells; host or cells: AsPC-1 (ATCC CRL-1682), CRISPR-Cas9 knock-in clone, one tagged allele
Procedure, shortened: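 Luminescence read-out of HiBiT-tagged endogenous KRASG12D in AsPC-1 cells after 24 h compound exposure at 37° C; lytic Nano-Glo HiBiT detection, 45 min at room temperature. A parallel alamar blue read (4 h) checked viability, normalized to DMSO-only controls.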

SW1573 HiBiT-KRASG12C = biological target: T2, SW1573 HiBiT-KRASG12C (Homo sapiens, UniProt P01116, G12C); assay: HiBiT degradation assay (G12C), SW1573 HiBiT-KRASG12C cells; format: cell-based; conditions: 24 hours treatment; for DC50: HiBiT luminescence; for Dmax: maximum degradation observed;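 on DC50: Letter grades: C is 1000 to 3000 nM and D is above 3000 nM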
T2 construct: expressed in transfected cells
Description: Reagents. SW1573 (CRL-2170), AsPC-1 (CRL-1682), and SW620 (CCL-227) cells were purchased from ATCC. SW1573 cells are homozygous for the G12C mutation in KRAS, AsPC-1 cells are homozygous for the G12D mutation, and SW620 cells are homozygous for the G12V mutation. SW1573 cells were cultured in DMEM+F12+Glutamax (+Sodium Bicarbonate, +sodium pyruvate, ThermoFisher scientific, #10565) supplemented with 10% FBS (ThermoFisher scientific, #2060357) and 1% Antibiotic-Antimycotic (ThermoFisher scientific, #15240096). AsPC-1 cells were cultured in GIBCO RPMI-1640 (ThermoFisher scientific, catalog #61870-036 with Glutamax, No HEPES, No Na Pyruvate) supplemented with 10% FBS (ThermoFisher scientific, catalog #2060357) and 1× Penicillin-Streptomycin (ThermoFisher scientific, catalog #15140122, 10000 U/ml, 100×). SW620 cells were cultured in DMEM Glutamax (ThermoFisher scientific, catalog #10566016) supplemented with 10% FBS (ThermoFisher scientific, catalog #2060357) and 1× Penicillin-Streptomycin (ThermoFisher scientific, catalog #15140122, 10000 U/ml, 100×). For degradation assays, 384 well plates were used. Alamar blue was purchased from ThermoFisher scientific (A50101) and used according to manufacturer instructions. The Nano-Glo® HiBiT Lytic Detection System and Nano-Glo® HiBiT Blotting System were purchased from Promega (#N3050 and #N2410) and used according to manufacturer instructions.
HiBiT-tagged cell line generation. To create the SW1573 HiBiT-KRASG12C cell line, the nucleotide sequence encoding the 11 amino acid HiBiT tag from Promegal was appended to the N-terminus of the KRASG12C coding sequence. This synthesized DNA was cloned into a modified pcDNA3.1 vector under the control of the thymidine kinase (TK) promoter. This HiBiT-KRASG12C expressing plasmid was transfected into parental SW1573 cells and colonies were selected using 400 μg/mL zeocin. The resulting clonal lines were screened for expression of HiBiT-KRASG12C protein using Nano-Glo® HiBiT Blotting System. A luminescent band of the correct size for HiBiT-KRASG12C was detected in several clones. Clone E6 was selected for further studies.
HiBiT degradation assays (G12C and G12D). Either SW1573 HiBiT-KRasG12C or AsPC-1 HiBiT-KRasG12D cells were plated at 9000 or 15,000 cells/well in a 384 well plate (Corning #3770). Compounds of the present disclosure and positive controls were diluted in the appropriate cell media and applied to the plated cells resulting in a final concentration titration of 10 μM to 508 pM in 0.5% DMSO. Gambogic acid was used as a positive control for cytotoxicity and titrated from 10 μM to 78 nM. All assays were performed in triplicate. Cells were treated with compounds for 24 hours at 37° C. in an incubator containing 5% CO2. Following treatment, alamar blue was used to determine if any compounds led to a loss in cell viability after 24 hours. The 10× alamar blue reagent was added to a final concentration of 1× as recommended by the manufacturer and cells were returned to the incubator for 4 hours. Plates were then allowed to equilibrate to room temperature and fluorescence was measured using a Perkin-Elmer EnVision. After completion of the fluorescence read, the liquid from each well was removed and the cells were washed with PBS. The Nano-Glo® HiBiT detection reagent was prepared according to the manufacturer's instructions and added to each well after the PBS wash was removed. Following incubation at room temperature for 45 minutes, the luminescence was read using the ultra-sensitive luminescence aperture on the Envision instrument.
Data analysis. Fluorescence values from the alamar blue treatment were normalized to the DMSO-only control for each compound titration. […]

T1 sequence (P01116 1-188 isoform P01116-2 G12D): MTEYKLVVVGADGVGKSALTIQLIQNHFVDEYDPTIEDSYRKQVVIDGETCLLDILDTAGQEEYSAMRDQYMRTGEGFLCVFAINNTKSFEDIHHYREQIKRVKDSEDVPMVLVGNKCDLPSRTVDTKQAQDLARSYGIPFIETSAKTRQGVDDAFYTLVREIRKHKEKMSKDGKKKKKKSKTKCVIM
T2 sequence (P01116 1-188 isoform P01116-2 G12C): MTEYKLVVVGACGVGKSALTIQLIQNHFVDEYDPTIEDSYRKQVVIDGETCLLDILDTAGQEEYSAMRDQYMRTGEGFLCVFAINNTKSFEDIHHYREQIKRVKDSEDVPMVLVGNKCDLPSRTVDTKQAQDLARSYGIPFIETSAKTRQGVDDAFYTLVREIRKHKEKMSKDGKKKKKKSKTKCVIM

Row | SMILES | Dmax (AsPC-1 HiBiT-KRASG12D) [%] | DC50 (AsPC-1 HiBiT-KRASG12D) [µM] | DC50 (SW1573 HiBiT-KRASG12C) [µM] | Dmax (SW1573 HiBiT-KRASG12C) [%]
1 | CCc1cccc2cc(O)cc(-c3ncc4c(N5CC6CCC(C5)N6)nc(OC[C@]56CCCN5[C@@H](COCC(=O)N[C@H](C(=O)N5C[C@H](O)C[C@H]5C(=O)N[C@@H](C)c5ccc(-c7scnc7C)cc5)C(C)(C)C)CC6)nc4c3F)c12 [Compound 1, (2S,4R)-1-[(2S)-2-[[2-[[(3R,8R)-8-[[4-(3,8-diazabicyclo[3.2.1]octan-3-yl)-7-(8-ethyl-3-hydroxy-1-naphthyl)-8-fluoro-pyrido[4,3-d]pyrimidin-2-yl]oxymethyl]-1,2,3,5,6,7-hexahydropyrrolizin-3-yl]methoxy]acetyl]amino]-3,3-dimethyl-butanoyl]-4-hydroxy-N-[(1S)-1-[4-(4-methylthiazol-5-yl)phenyl]ethyl]pyrrolidine-2-carboxamide] | 80 to 100 | 0.6 to 1 | > 3 | 20 to 60
2 | CCc1cccc2cc(O)cc(-c3ncc4c(N5CC6CCC(C5)N6)nc(OC[C@@]56CCCN5[C@H](COCC(=O)N[C@H](C(=O)N5C[C@H](O)C[C@H]5C(=O)N[C@@H](C)c5ccc(-c7scnc7C)cc5)C(C)(C)C)CC6)nc4c3F)c12 [Compound 2, (2S,4R)-1-[(2S)-2-(2-{[(3S,7aS)-7a-{[(4-{3,8-diazabicyclo[3.2.1]octan-3-yl}-7-(8-ethyl-3-hydroxynaphthalen-1-yl)-8-fluoropyrido[4,3-d]pyrimidin-2-yl)oxy]methyl}-hexahydro-1H-pyrrolizin-3-yl]methoxy}acetamido)-3,3-dimethylbutanoyl]-4-hydroxy-N-[(1S)-1-[4-(4-methyl-1,3-thiazol-5-yl)phenyl]ethyl]pyrrolidine-2-carboxamide] | 80 to 100 | < 0.6 | 1 to 3 | 20 to 60
3 | Cc1ccc2[nH]ncc2c1-c1ncc2c(N3CC4CCC(C3)N4)nc(OCCN3CCC(COc4cc([C@H](C(=O)N5C[C@H](O)C[C@H]5C(=O)N[C@@H](C)c5ccc(-c6scnc6C)cc5)C(C)C)on4)CC3)nc2c1F [Compound 3, (2S,4R)-1-[(2R)-2-[3-[[1-[2-[4-(3,8-diazabicyclo[3.2.1]octan-3-yl)-8-fluoro-7-(5-methyl-1H-indazol-4-yl)pyrido[4,3-d]pyrimidin-2-yl]oxyethyl]-4-piperidyl]methoxy]isoxazol-5-yl]-3-methyl-butanoyl]-4-hydroxy-N-[(1S)-1-[4-(4-methylthiazol-5-yl)phenyl]ethyl]pyrrolidine-2-carboxamide] | – | > 3 | > 3 | –
4 | CCc1cccc2cc(O)cc(-c3ncc4c(N5CC6CCC(C5)N6)nc(OC[C@@]56CCCN5[C@H](COC(=O)N5CCN(c7cc([C@@H](C(=O)N8C[C@H](O)C[C@H]8C(=O)N[C@@H](C)c8ccc(-c9scnc9C)cc8)C(C)C)on7)CC5)CC6)nc4c3F)c12 [Compound 4] | 20 to 60 | < 0.6 | > 3 | –
5 | CCc1cccc2cc(O)cc(-c3ncc4c(N5CC6CCC(C5)N6)nc(OC[C@@]56CCCN5[C@H](COC(=O)N5CCN(c7cc([C@H](C(=O)N8C[C@H](O)C[C@H]8C(=O)N[C@@H](C)c8ccc(-c9scnc9C)cc8)C(C)C)on7)CC5)CC6)nc4c3F)c12 [Compound 5] | 80 to 100 | < 0.6 | ≤ 0.6 | 60 to 80
6 | CCc1cccc2cc(O)cc(-c3ncc4c(N5CC6CCC(C5)N6)nc(OC[C@]56CCCN5[C@@H](COC(=O)N5CCN(c7cc([C@@H](C(=O)N8C[C@H](O)C[C@H]8C(=O)N[C@@H](C)c8ccc(-c9scnc9C)cc8)C(C)C)on7)CC5)CC6)nc4c3F)c12 [Compound 6] | < 20 | 1 to 3 | > 3 | –
7 | CCc1cccc2cc(O)cc(-c3ncc4c(N5CC6CCC(C5)N6)nc(OCCN5CCC(COc6cc([C@@H](C(=O)N7C[C@H](O)C[C@H]7C(=O)N[C@@H](C)c7ccc(-c8scnc8C)cc7)C(C)C)on6)CC5)nc4c3F)c12 [Compound 8, (2S,4R)-1-[(2S)-2-[3-[[1-[2-[4-(3,8-diazabicyclo[3.2.1]octan-3-yl)-7-(8-ethyl-3-hydroxy-1-naphthyl)-8-fluoro-pyrido[4,3-d]pyrimidin-2-yl]oxyethyl]-4-piperidyl]methoxy]isoxazol-5-yl]-3-methyl-butanoyl]-4-hydroxy-N-[(1S)-1-[4-(4-methylthiazol-5-yl)phenyl]ethyl]pyrrolidine-2-carboxamide] | 20 to 60 | 1 to 3 | > 3 | –
8 | CCc1cccc2cc(O)cc(-c3ncc4c(N5CC6CCC(C5)N6)nc(OCCN5CCC(COC6(C(=O)N[C@H](C(=O)N7C[C@H](O)C[C@H]7C(=O)N[C@@H](C)c7ccc(-c8scnc8C)cc7)C(C)(C)C)CC6)CC5)nc4c3F)c12 [Compound 9, (2S,4R)-1-[(2S)-2-[[1-[[1-[2-[4-(3,8-diazabicyclo[3.2.1]octan-3-yl)-7-(8-ethyl-3-hydroxy-1-naphthyl)-8-fluoro-pyrido[4,3-d]pyrimidin-2-yl]oxyethyl]-4-piperidyl]methoxy]cyclopropanecarbonyl]amino]-3,3-dimethyl-butanoyl]-4-hydroxy-N-[(1S)-1-[4-(4-methylthiazol-5-yl)phenyl]ethyl]pyrrolidine-2-carboxamide] | 80 to 100 | < 0.6 | > 3 | –
9 | CCc1cccc2cc(O)cc(-c3ncc4c(N5CC6CCC(C5)N6)nc(OCCN5CCC(COCC(=O)N[C@H](C(=O)N6C[C@@H](O)C[C@H]6C(=O)N[C@@H](C)c6ccc(-c7scnc7C)cc6)C(C)(C)C)CC5)nc4c3F)c12 [Compound 10, (2S,4S)-1-[(2S)-2-[[2-[[1-[2-[4-(3,8-diazabicyclo[3.2.1]octan-3-yl)-7-(8-ethyl-3-hydroxy-1-naphthyl)-8-fluoro-pyrido[4,3-d]pyrimidin-2-yl]oxyethyl]-4-piperidyl]methoxy]acetyl]amino]-3,3-dimethyl-butanoyl]-4-hydroxy-N-[(1S)-1-[4-(4-methylthiazol-5-yl)phenyl]ethyl]pyrrolidine-2-carboxamide] | – | > 3 | > 3 | –
10 | CCc1cccc2cc(O)cc(-c3ncc4c(N5CC6CCC(C5)N6)nc(OCCN5CCC(OCCOCC(=O)N[C@H](C(=O)N6C[C@H](O)C[C@H]6C(=O)N[C@@H](C)c6ccc(-c7scnc7C)cc6)C(C)(C)C)CC5)nc4c3F)c12 [Compound 11] | 60 to 80 | 1 to 3 | > 3 | –
11 | CCc1cccc2cc(O)cc(-c3ncc4c(N5CC6CCC(C5)N6)nc(OCCN5CCC(OCC(=O)N[C@H](C(=O)N6C[C@H](O)C[C@H]6C(=O)N[C@@H](C)c6ccc(-c7scnc7C)cc6)C(C)(C)C)CC5)nc4c3F)c12 [Compound 12, (2S,4R)-1-[(2S)-2-[[2-[[1-[2-[4-(3,8-diazabicyclo[3.2.1]octan-3-yl)-7-(8-ethyl-3-hydroxy-1-naphthyl)-8-fluoro-pyrido[4,3-d]pyrimidin-2-yl]oxyethyl]-4-piperidyl]oxy]acetyl]amino]-3,3-dimethyl-butanoyl]-4-hydroxy-N-[(1S)-1-[4-(4-methylthiazol-5-yl)phenyl]ethyl]pyrrolidine-2-carboxamide] | 80 to 100 | 1 to 3 | > 3 | –
